Experimental data from ChEMBL document CHEMBL1201862, “PubChem BioAssay data set” (2004).
One block for each compound: values may come before it. The source made the active and inactive calls.

Columns and labels:
[1] = test system: Candida albicans; assay: growth inhibition of resistant C. albicans, dose response, CaCi-8 strain, fluconazole, dry powder, set 4 (AID 488950); type: functional, organism-based
[2] = test system: Candida albicans; assay: fluconazole resistance reversal in C. albicans, dose response, CaCi-2 strain, Alamar Blue, dry powder, set 4 (AID 488943); type: functional, organism-based
[3] = test system: Candida albicans; assay: growth inhibition of azole-resistant C. albicans, dose response, CaCi-8 strain, Alamar Blue, dry powder, set 2 (AID 488909); type: functional, organism-based
[4] = target: T1, Sentrin-specific protease 8 (Homo sapiens, UniProt Q96LD8); assay: SENP8 protease inhibitors, SAR follow-up, biochemical, luminescence (AID 504501); type: functional
T1 sequence (Q96LD8 whole entry): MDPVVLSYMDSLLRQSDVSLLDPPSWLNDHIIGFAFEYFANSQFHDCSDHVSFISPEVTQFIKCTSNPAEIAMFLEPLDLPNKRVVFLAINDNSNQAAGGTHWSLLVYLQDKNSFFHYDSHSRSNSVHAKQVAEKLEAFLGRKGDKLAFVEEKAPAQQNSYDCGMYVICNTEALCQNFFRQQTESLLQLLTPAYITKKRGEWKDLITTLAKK

[5] = target: T2, Caspase-3 (Homo sapiens, UniProt P42574); assay: SAR Analysis of small molecule inhibitors of Sentrin-specific proteases (SENPs) using a Caspase-3 Selectivity assay. [Related pubchem assays (depositor defined):AID2540, AID2599, AID434973, AID489001]; type: functional
T2 sequence (P42574 whole entry): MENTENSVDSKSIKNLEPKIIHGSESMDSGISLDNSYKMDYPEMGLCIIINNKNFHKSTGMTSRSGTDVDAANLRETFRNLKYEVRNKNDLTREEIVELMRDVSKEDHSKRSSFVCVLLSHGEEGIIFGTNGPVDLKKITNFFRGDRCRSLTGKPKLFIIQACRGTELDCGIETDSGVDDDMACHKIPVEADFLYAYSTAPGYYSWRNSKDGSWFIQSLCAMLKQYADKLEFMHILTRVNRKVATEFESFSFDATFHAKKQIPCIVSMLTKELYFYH

[6] = target: T3, Sentrin-specific protease 6 (Homo sapiens, UniProt Q9GZR1); assay: SAR Analysis of small molecule inhibitors of Sentrin-specific protease 6 (SENP6) using a Luminescent assay. [Related pubchem assays (depositor defined):AID2582, AID2599]; type: functional
T3 sequence (Q9GZR1 whole entry): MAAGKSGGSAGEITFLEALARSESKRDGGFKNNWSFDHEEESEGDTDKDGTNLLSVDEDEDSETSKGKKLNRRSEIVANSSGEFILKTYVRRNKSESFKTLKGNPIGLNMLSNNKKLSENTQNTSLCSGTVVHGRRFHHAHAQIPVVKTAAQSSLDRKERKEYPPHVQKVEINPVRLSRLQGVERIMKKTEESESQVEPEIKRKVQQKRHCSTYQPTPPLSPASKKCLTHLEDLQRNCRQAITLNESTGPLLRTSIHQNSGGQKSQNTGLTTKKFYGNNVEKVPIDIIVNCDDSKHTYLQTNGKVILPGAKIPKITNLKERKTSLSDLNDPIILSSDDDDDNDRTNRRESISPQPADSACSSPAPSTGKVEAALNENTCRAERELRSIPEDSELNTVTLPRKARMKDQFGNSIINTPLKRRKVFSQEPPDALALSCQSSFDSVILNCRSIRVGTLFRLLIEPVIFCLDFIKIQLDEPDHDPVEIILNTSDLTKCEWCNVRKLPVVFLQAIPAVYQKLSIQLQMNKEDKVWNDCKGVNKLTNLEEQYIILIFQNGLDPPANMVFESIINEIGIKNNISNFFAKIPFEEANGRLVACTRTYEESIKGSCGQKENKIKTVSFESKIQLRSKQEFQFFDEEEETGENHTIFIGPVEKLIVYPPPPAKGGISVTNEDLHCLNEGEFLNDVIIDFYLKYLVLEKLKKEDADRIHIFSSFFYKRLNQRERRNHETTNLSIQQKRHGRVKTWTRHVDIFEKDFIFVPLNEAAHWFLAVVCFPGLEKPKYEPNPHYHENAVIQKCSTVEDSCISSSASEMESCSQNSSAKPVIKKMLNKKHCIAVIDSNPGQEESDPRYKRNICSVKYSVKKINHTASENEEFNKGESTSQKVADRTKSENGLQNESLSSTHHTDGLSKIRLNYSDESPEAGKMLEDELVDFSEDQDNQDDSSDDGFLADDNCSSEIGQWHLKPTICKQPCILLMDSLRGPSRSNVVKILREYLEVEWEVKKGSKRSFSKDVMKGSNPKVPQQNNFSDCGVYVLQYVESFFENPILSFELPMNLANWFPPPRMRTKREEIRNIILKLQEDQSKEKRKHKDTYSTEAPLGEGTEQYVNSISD

[7] = target: T4, Sentrin-specific protease 7 (Homo sapiens, UniProt Q9BQF6); assay: SENP7 protease inhibitors, SAR follow-up, biochemical, luminescence (AID 504497); type: functional
T4 sequence (Q9BQF6 whole entry): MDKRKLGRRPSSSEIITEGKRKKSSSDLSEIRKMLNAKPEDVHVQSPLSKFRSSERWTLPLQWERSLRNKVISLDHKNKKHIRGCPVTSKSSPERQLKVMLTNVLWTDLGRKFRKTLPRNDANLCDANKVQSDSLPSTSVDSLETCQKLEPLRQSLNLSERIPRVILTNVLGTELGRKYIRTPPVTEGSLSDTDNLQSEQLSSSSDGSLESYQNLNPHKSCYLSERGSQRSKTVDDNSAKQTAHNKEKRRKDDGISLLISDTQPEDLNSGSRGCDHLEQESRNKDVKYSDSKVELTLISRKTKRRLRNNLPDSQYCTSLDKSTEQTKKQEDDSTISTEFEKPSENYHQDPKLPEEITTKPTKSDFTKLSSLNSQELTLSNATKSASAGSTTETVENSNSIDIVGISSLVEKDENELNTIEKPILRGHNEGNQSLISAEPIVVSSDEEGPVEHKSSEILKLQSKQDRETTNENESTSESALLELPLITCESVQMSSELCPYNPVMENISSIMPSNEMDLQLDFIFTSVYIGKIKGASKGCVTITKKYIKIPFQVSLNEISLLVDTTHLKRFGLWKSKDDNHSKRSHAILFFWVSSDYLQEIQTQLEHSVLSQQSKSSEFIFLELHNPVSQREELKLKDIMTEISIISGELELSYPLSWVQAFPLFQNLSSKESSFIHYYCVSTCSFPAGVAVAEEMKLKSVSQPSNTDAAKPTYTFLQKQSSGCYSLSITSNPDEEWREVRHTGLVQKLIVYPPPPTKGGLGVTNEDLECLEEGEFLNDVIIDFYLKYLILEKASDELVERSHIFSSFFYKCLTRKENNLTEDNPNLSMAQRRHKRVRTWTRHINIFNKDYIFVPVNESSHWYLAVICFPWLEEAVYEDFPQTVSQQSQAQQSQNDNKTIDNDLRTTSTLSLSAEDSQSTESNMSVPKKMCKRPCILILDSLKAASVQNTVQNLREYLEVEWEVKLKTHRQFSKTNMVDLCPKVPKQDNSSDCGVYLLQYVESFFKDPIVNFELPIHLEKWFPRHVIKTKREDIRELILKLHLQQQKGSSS

[8] = target: Opioid receptors; mu & delta (Homo sapiens, UniProt P41143+P35372); assay: agonists of MOR-DOR heterodimerization, dose response, cell-based, luminescence (AID 588407); type: functional
[9] = test system: INS1; assay: beta cell apoptosis inhibitors, cytokine rescue, dose response, luminescence, retest (AID 449756); type: functional, cell-based; conditions: Rattus norvegicus;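 note: cell death triggered by IL-1 beta plus TNF-alpha plus IFN-gamma mixture; protective hits raise ATP signal compared with cytokine alone wells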
[10] = test system: HEK293; assay: HEK cell cytotoxicity by LDH release, dose response, cytotoxicity control for IDE activator project, fluorescence, HEK cells (AID 588440); type: functional, cell-based; conditions: Homo sapiens;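 note: cytotoxicity by LDH release measuring loss of membrane integrity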
[11] = test system: HEK293; assay: optical interference in Abeta FP readout, dose response, artefact control for IDE activator project, biochemical, fluorescence polarization (AID 588442); type: functional, cell-based; conditions: Homo sapiens

Structure (SMILES): O=C(Nc1ccc(Cl)cc1)N1CCN(c2ccnc3cc(Cl)ccc23)CC1
- AC50 [1]: 1.56 µM (active)
- AC50 [2]: 1.16 µM (active)
- AC50 [3]: 0.295 µM (active)

Structure (SMILES): CC(C)CC(=O)N1CCN(c2ccnc3cc(Cl)ccc23)CC1
- AC50 [1]: 6.04 µM (active)
- AC50 [2]: 5.54 µM (active)
- AC50 [3]: 12.7 µM (active)

- IC50 [5]: > 99 µM (inactive)
- IC50 [6]: > 99 µM (inactive)
- IC50 [7]: > 99 µM (inactive)
Structure (SMILES): N#Cc1ccc(-c2nc(/C=C/c3ccc(F)cc3)no2)cc1
- IC50 [4]: > 99 µM (inactive)

Structure (SMILES): Clc1ccc(C(c2ccc(Cl)cc2)[n+]2ccn(CC(OCc3ccc(Cl)cc3Cl)c3ccc(Cl)cc3Cl)c2)cc1.[Cl-] (centres undefined) [CALMIDAZOLIUM CHLORIDE]
- EC50 [8]: > 3.426 µM
- AC50 [9]: 2.56 µM (active)
- IC50 [10]: 2.01 µM (active)
- EC50 [11]: > 54.7 µM (inactive)
